Results on 1 molecule are retold here after PMC2680982, “The cAMP-Dependent Protein Kinase Inhibitor H-89 Attenuates the Bioluminescence Signal Produced by Renilla Luciferase” (PLoS ONE, 2009).

Structures are written as SMILES. pIC50: −log10 of the molar value.

The assay addresses T1, RLuc8 (Renilla luciferase variant) (Renilla reniformis, UniProt P27652, A55T/C124A/S130A/K136R/A143M/M185V/M253L/S287L).
T1 construct: RLuc8 in pRSETB, purified on Ni-NTA from E. coli
T1 sequence (P27652 1-311 A55T/C124A/S130A/K136R/A143M/M185V/M253L/S287L): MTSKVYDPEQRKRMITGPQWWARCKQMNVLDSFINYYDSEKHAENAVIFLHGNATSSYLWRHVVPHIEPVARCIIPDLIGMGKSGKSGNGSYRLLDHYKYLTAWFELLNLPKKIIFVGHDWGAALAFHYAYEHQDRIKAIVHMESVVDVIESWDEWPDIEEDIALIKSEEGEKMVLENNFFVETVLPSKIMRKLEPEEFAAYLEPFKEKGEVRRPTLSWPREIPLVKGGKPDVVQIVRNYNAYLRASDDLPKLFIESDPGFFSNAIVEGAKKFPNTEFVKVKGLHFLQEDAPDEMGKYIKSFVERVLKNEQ
Description: bioluminescence inhibition of […] purified RLuc8 with coelenterazine-h titration. Format: biochemical.

With `O=S(=O)(NCCNC/C=C/c1ccc(Br)cc1)c1cccc2cnccc12` [H-89, N-[2-(p-bromocinnamylamino)ethyl]-5-isoquinolinesulfonamide], the pIC50 is 4.68.

By pIC50 is commonly meant the IC50 on a negative log10 scale, so that one unit is a factor of ten. Higher therefore signals a low IC50.
